{"source": "patent US20250204515A1", "about": "“Heparanase Inhibition for Graft Protection” (University of Pittsburgh - Of the Commonwealth System of …, priority 2022, published 2025)", "key": {"[1]": {"tested_on": "HPSE1, MMP2, IL-6, IL-1β, TNF-α mRNA; IκB-α", "assay": "Real-time RT-PCR and western blotting in rat lung tissue after 4 hours of EVLP", "procedure": "(§1) Graft tissues collected after 4 hours of EVLP and 2 hours after reperfusion were examined for relative mRNA expression levels of interleukin (IL)-6, IL-1, tumor necrosis factor (TNF)-α, and glyceraldehyde-3-phosphate dehydrogenase (GAPDH). Gene expression levels were normalized to GAPDH mRNA levels.\nWestern blotting: Total isolated proteins were extracted/resolved by 10% SDS-PAGE followed by transfer to 0.2 μm nitrocellulose membranes (Bio-Rad Laboratories, Hercules, CA, USA). Membranes were blocked with 5% non-fat milk at room temperature for 2 hours and then incubated overnight at 4° C. with the following primary antibodies: inhibitor of KB-α (IκB-α; #9242, Cell Signaling Technology, Inc., Danvers, MA) and β-actin (#A1978, Millipore-Sigma). Membranes were then incubated with either goat anti-mouse IgG (H+L) (#31430, Thermo Fisher Scientific Inc.; 1:5000) or goat anti-rabbit IgG (H+L) (#31460, Thermo Fisher Scientific Inc.; 1:3000) horseradish peroxidase-conjugated polyclonal secondary antibodies at room temperature for 2 hours. Proteins were visualized using an enhanced chemiluminescence kit (Abcam), and protein bands were imaged and analyzed using Image Lab software (Version 6.0; Bio-Rad Laboratories, Inc., Hercules, CA). The intensities of protein bands were quantitated by Image J software (National Institutes of Health, Bethesda, MD)."}, "[2]": {"tested_on": "glycosaminoglycans (GAGs), syndecan-1", "assay": "Glycocalyx shedding in rat lungs during EVLP (GAGs, syndecan-1 ELISA, immunofluorescence)", "procedure": "Syndecan-1 ELISA: Syndecan-1 concentrations in EVLP perfusate were quantitated using ELISA (Immunotag™ Rat Syndecan-1 ELISA, G-Biosciences, Geno Technology, Inc., St. Louis, MO). ELISA was performed according to the manufacturer's instructions using perfusate samples acquired after 4 hours of EVLP.\nDetermination of glycosaminoglycans (GAGS): The concentration of GAGs in rat EVLP perfusate at 4 hours was quantitated using 1,9-dimethylmethylene blue (DMMB, Millipore Sigma). The DMMB solution (pH˜3.0) was prepared by dissolving 16 mg/I DMMB in distilled H2O containing 3.04 g/I glycine, 1.6 g/l NaCl and 95 ml 0.1 M acetic acid. Briefly, 1 ml DMMB solution was mixed with 100 μl EVLP perfusate then incubated for 18 h at room temperature. The tubes were then centrifuged at 14,000 rpm for 20 min at 4° C. Supernatants were carefully decanted, 100 μl dissolvent buffer (4 M guanidine hydrochloride, 50 mM sodium acetate, 10% propan-1-ol, pH 6.8) was added to each pellet, and the tubes were incubated at 40° C. and vortexed until GAG-DMMB pellets were completely dissolved. GAG content in each sample was measured spectrophotometrically at 656 nm.\n(§2) Tissue staining and histopathological analysis: Formalin-fixed, paraffin-embedded lung tissues collected 2 hours after transplantation were sectioned to 4 μm thickness and stained with hematoxylin and eosin. In parallel, sections of tissue collected after 4 hours of EVLP were stained for immunofluorescence imaging using primary antibodies for syndecan-1 (DL-101) (#sc-12765, Santa Cruz) and caveolin-1 (#3238, Cell Signaling Technology, Danvers, MA) and with Hoechst 33342 dye (Thermo Scientific). Donkey Cy3-conjugated anti-mouse IgG (#AP192C, MilliporeSigma, Burlington, MA) and Cy5-conjugated goat anti-rabbit IgG (#A10523, Thermo Scientific) secondary antibodies were used to detect primary antibodies. Stained slides were scanned with a whole-slide image scanner (Axio Scan.Z1; Carl Zeiss AB, Oberkochen, Germany) and analyzed with digital image processing software (ZEN lite blue edition; Carl Zeiss)."}, "rat lung grafts": {"tested_on": "rat lung grafts", "assay": "Rat orthotopic left lung transplantation following EVLP", "assay_type": "in vivo", "procedure": "Rat orthotopic left lung transplantation following EVLP: Orthotopic, single-lung transplantation of the left lung was performed using the 3-cuff method. After EVLP for 4 hours, the lungs were cooled with 4° C. Perfadex on the EVLP system and stored at 4° C. for 1 hour prior to transplantation. The recipient animals were sacrificed 2 hours after reperfusion. When analyzing graft function, the native lung was clamped, 100% 02 was administered for 5 minutes through a ventilator, and the recipient's blood was sampled from the graft pulmonary vein for blood gas analysis.\nas §1, §2"}, "rat lungs": {"tested_on": "rat lungs", "assay": "Rat EVLP for 4 hours with HPSE inhibitors in the perfusate: physiology, endothelial barrier, edema", "conditions": "heparin 1000-U/hour or SF4 1 μM in perfusate", "protocol": "In the heparin group, 1000-U of heparin were initially added to the EVLP perfusate, then 1000-U of heparin were administered every hour during EVLP. […] Two control conditions were included in the experimental protocol: 1) sham controls (Sham) were lungs not placed on EVLP and 2) untreated controls (Control) were lungs placed on EVLP without HPSE inhibitor treatment. EVLP physiology, endothelial integrity, inflammation and glycocalyx preservation for EVLP lungs and post-transplant lung grafts were investigated across all treatment regimens.\nEx vivo lung perfusion in rats: EVLP was performed using a commercially-available rodent EVLP system (IL-2 Isolated Perfused Rat or Guinea Pig Lung System; Harvard apparatus, Holliston, MA). Acellular Steen solution was used for EVLP perfusate and medicated with methylprednisolone (Solu-Medrol®; Pfizer, Inc., New York, NY) and cephalosporin (Cefazolin; WG critical care LLC, Paramus, NJ) equally in all experimental groups. […] Pulmonary artery pressure, peak airway pressure, and airway flow were monitored continuously, and dynamic lung compliance (Cdyn) and pulmonary vascular resistance (PVR) were analyzed.\nEvaluation of endothellal barrier Integrity After 4 hours of EVLP, 60 mg of Evans blue dye (EBD, Millipore-Sigma, Burlington, MA) was administered into the perfusate to assess vascular endothelial permeability. After 30 minutes of perfusion, the lung vascular bed was rinsed with 20 ml of phosphate-buffered saline (PBS), and slices of lungs were incubated in formamide (Millipore Sigma) overnight at 60° C. Absorbance of the extractant was measured at 620 nm, and EBD was normalized to dry-tissue weight.\nWet-to-Dry (W/D) weight ratio: Lung tissues collected 2 hours after transplant were immediately weighed then placed in a 60° C. oven to dry for 72 hours. Tissues were weighed again after drying to determine the wet-to-dry lung weight ratio."}, "[3]": {"tested_on": "human lung microvascular endothelial cells (HLMVECs)", "assay": "In-vitro cellular toxicity test for HPSE inhibitor candidates", "conditions": "HLMVECs, 24 hours", "procedure": "In-vitro cellular toxicity test for HPSE Inhibitor candidates: Human lung microvascular endothelial cells (HLMVECs) were obtained from the American Type Culture Collection (Rockville, MD, USA). Cells were cultured in a humidified incubator at 37° C. and 5% CO2 and grown in endothelial growth medium (EGM™-2 Endothelial Cell Growth Medium-2, Lonza, Basel, Switzerland) supplemented with 2% heat-inactivated fetal bovine serum and 0.04% hydrocortisone. Cell media was replaced every 48 hours, and the cells were split upon 80-90% confluence.\nFinal tested concentrations of HPSE inhibitors were calculated based upon repeatable in vitro dose-response studies. After 24 hours incubation, cell viability was confirmed by Trypan blue exclusion assay. Total mRNA was isolated using Trizol (Thermo Fisher Scientific Inc., Waltham, MA) and relative messenger RNA (mRNA) expression levels of hemeoxygenase-1 (HO-1), interleukin (IL)-6, tumor necrosis factor (TNF)-α, monocyte chemoattractant protein (MCP)-1, B-cell lymphoma 2 Associated X (Bax), B-cell lymphoma 2 (Bcl-2), B-cell lymphoma-extra-large (Bcl-xL) were quantified by SYBR Green 2-step, real-time, reverse transcription-polymerase chain reaction (RT-PCR). Relative gene expression levels were normalized to mRNA expression of glyceraldehyde-3-phosphate dehydrogenase (GAPDH) and compared to relative mRNA expression levels in control-treated HLMVEC."}, "heparanase (HPSE)": {"tested_on": "heparanase (HPSE)", "assay": "In vitro β-D-glucuronidase activity assay (4-MUG substrate)", "conditions": "in vitro, FIG. 8", "protocol": "In vitro β-D-glucuronidase activity assay Heparanase activity was measured via β-Glucuronidase activity assay using 4-methylumbelliferyl-β-D-glucuronide (4-MUG) substrate (Millipore-Sigma). As a source of enzymes, platelet rich plasma (PRP) obtained from rat whole blood or rat lung whole tissue lysate, was used. […] Fluorescence (λex 360 nm/λem 460 nm) was continuously measured for 60 minutes using a fluorescence microplate reader (BioTech Synergy HTX, Agilent Technologies, Santa Clara, CA)."}, "[4]": {"conditions": "2 hours after transplant, vs untreated control and heparin-pretreated lungs"}, "[5]": {"conditions": "100 nM SF4, 250 mM amodiaquine, 250 mM triazolothiadiazoles"}}, "data": [{"smiles": "Cl.O=C(O)[C@H]1CN[C@H](NC(=O)C(F)(F)F)[C@@H](O)[C@H]1O", "note": "[SF4, (3S,4S,5R,6R)-4,5-dihydroxy-6-[(2,2,2-trifluoroacetyl)amino]piperidine-3-carboxylic acid]", "values": [{"measurement": "IL-1β mRNA expression", "setting": "[1]; lung tissue after 4-hours EVLP", "value": "significantly downregulated"}, {"measurement": "IL-6 mRNA expression", "setting": "[1]; lung tissue after 4-hours EVLP", "value": "significantly downregulated"}, {"measurement": "TNF-α mRNA expression", "setting": "[1]; lung tissue after 4-hours EVLP", "value": "significantly downregulated"}, {"measurement": "IκB-α expression (western blot)", "setting": "[1]; lung tissue after 4-hours EVLP, vs control and heparin groups", "value": "significantly stabilized"}, {"measurement": "HPSE1 mRNA expression", "setting": "[1]; lung tissue after 4 hours of EVLP, vs sham", "value": "not altered"}, {"measurement": "syndecan-1 immunofluorescent staining of lung endothelial lumen", "setting": "[2]; after 4-hours EVLP, vs controls and heparin-treated", "value": "significantly increased staining"}, {"measurement": "syndecan-1 concentration in EVLP perfusate", "setting": "[2]; after 4 hours EVLP, SF4 vs heparin-treated, heparin vs controls", "value": "significantly lower"}, {"measurement": "GAGs content in EVLP perfusate", "setting": "[2]; at 4-hours EVLP, vs controls", "value": "significantly reduced"}, {"measurement": "H&E histology of grafts", "setting": "rat lung grafts; 2 hours after transplant following 4 hours of EVLP", "value": "reduced swollen alveolar walls, congestion in the blood vessels, and fluid leaks"}, {"measurement": "IL-1β mRNA expression", "setting": "rat lung grafts; [4]", "value": "significantly lower"}, {"measurement": "IL-6 mRNA expression", "setting": "rat lung grafts; [4]", "value": "significantly lower"}, {"measurement": "TNF-α mRNA expression", "setting": "rat lung grafts; [4]", "value": "significantly lower"}, {"measurement": "dynamic lung compliance (Cdyn) during EVLP", "setting": "rat lungs; 4-hour EVLP, vs control", "value": "neither heparin nor SF4 altered Cdyn"}, {"measurement": "Evans blue dye (EBD) accumulation in lung tissue", "setting": "rat lungs; after 4-hours EVLP", "value": "markedly decreased"}]}, {"smiles": "CCN(CC)Cc1cc(Nc2ccnc3cc(Cl)ccc23)ccc1O", "note": "[Amodiaquine, amodiaquine]", "values": [{"measurement": "Relative mRNA expression (compared to control) Bax", "setting": "[3]; 100 nM SF4", "value": 0.71}, {"measurement": "Relative mRNA expression (compared to control) Bcl-xl", "setting": "[3]; [5]", "value": 1.30}, {"measurement": "Relative mRNA expression (compared to control) HO-1", "setting": "[3]; [5]", "value": 2.94}, {"measurement": "Relative mRNA expression (compared to control) IL6", "setting": "[3]; [5]", "value": 13.55}, {"measurement": "Relative mRNA expression (compared to control) MCP1", "setting": "[3]; [5]", "value": 3.45}, {"measurement": "β-D-glucuronidase activity, dose response", "setting": "heparanase (HPSE)", "value": "dose-dependent"}]}, {"smiles": "O=C(O)Cc1ccc2oc(-c3ccc(NC(=O)/C=C/c4ccc(Br)cc4)c(F)c3)nc2c1", "note": "[OGT-2113]", "values": [{"measurement": "β-D-glucuronidase activity, dose response", "setting": "heparanase (HPSE)", "value": "dose-dependent"}]}]}
